Test results: PubChem BioAssay AID1259407 (Chemical Carcinogenesis Research Information System (CCRIS), 2018)
The source made the active and inactive calls. How the calls were made is not given here.

Tested on: CCRIS mutagenicity, Ames/micronucleus/aberration tests
Experiment: CCRIS mutagenicity studies
[1] = Test System: AMES SALMONELLA TYPHIMURIUM, Strain/Indicator: TA98, Metabolic Activation: NONE, Method: PREINCUBATION
[2] = Test System: AMES SALMONELLA TYPHIMURIUM, Strain/Indicator: TA100, Metabolic Activation: NONE, Method: PREINCUBATION

Measured: mutagenic call

CCOC(C)=O
inactive: End Point: IN VITRO CHROMOSOMAL ABERRATIONS, Test System: CHO-LB CELLS, Metabolic Activation: NONE inactive; negative | End Point: IN VITRO CHROMOSOMAL ABERRATIONS, Test System: CHO-LB CELLS, Metabolic Activation: RAT, LIVER, S-9, AROCLOR 1254 inactive; negative | End Point: IN VIVO MICRONUCLEUS, Test System: BONE MARROW POLYCHROMATIC ERYTHROCYTES, Species: MOUSE, Strain/Sex: DDY/MALE, Route: IP inactive; negative | Test System: AMES SALMONELLA TYPHIMURIUM, Strain/Indicator: TA97, Metabolic Activation: HAMSTER, LIVER, S-9, AROCLOR 1254 (10 OR 30%), Method: PREINCUBATION inactive; negative | Test System: AMES SALMONELLA TYPHIMURIUM, Strain/Indicator: TA97, Metabolic Activation: NONE, Method: PREINCUBATION inactive; negative | Test System: AMES SALMONELLA TYPHIMURIUM, Strain/Indicator: TA97, Metabolic Activation: RAT, LIVER, S-9, AROCLOR 1254 (10 OR 30%), Method: PREINCUBATION inactive; negative | Test System: AMES SALMONELLA TYPHIMURIUM, Strain/Indicator: TA98, Metabolic Activation: HAMSTER, LIVER, S-9, AROCLOR 1254 (10 OR 30%), Method: PREINCUBATION inactive; negative | [1] inactive; negative | Test System: AMES SALMONELLA TYPHIMURIUM, Strain/Indicator: TA98, Metabolic Activation: RAT, LIVER, S-9, AROCLOR 1254 (10 OR 30%), Method: PREINCUBATION inactive; negative | Test System: AMES SALMONELLA TYPHIMURIUM, Strain/Indicator: TA98, Metabolic Activation: RAT, LIVER, S-9, PHENOBARBITAL AND BETA-NAPHTHOFLAVONE, Method: PREINCUBATION inactive; negative | Test System: AMES SALMONELLA TYPHIMURIUM, Strain/Indicator: TA100, Metabolic Activation: HAMSTER, LIVER, S-9, AROCLOR 1254 (10 OR 30%), Method: PREINCUBATION inactive; negative | [2] inactive; negative | Test System: AMES SALMONELLA TYPHIMURIUM, Strain/Indicator: TA100, Metabolic Activation: RAT, LIVER, S-9, AROCLOR 1254 (10 OR 30%), Method: PREINCUBATION inactive; negative | Test System: AMES SALMONELLA TYPHIMURIUM, Strain/Indicator: TA100, Metabolic Activation: RAT, LIVER, S-9, PHENOBARBITAL AND BETA-NAPHTHOFLAVONE, Method: PREINCUBATION inactive; negative | Test System: AMES SALMONELLA TYPHIMURIUM, Strain/Indicator: TA102, Metabolic Activation: NONE, Method: PREINCUBATION inactive; negative | Test System: AMES SALMONELLA TYPHIMURIUM, Strain/Indicator: TA102, Metabolic Activation: RAT, LIVER, S-9, PHENOBARBITAL AND BETA-NAPHTHOFLAVONE, Method: PREINCUBATION inactive; negative | Test System: AMES SALMONELLA TYPHIMURIUM, Strain/Indicator: TA104, Metabolic Activation: NONE, Method: PREINCUBATION inactive; negative | Test System: AMES SALMONELLA TYPHIMURIUM, Strain/Indicator: TA104, Metabolic Activation: RAT, LIVER, S-9, PHENOBARBITAL AND BETA-NAPHTHOFLAVONE, Method: PREINCUBATION inactive; negative | Test System: AMES SALMONELLA TYPHIMURIUM, Strain/Indicator: TA1535, Metabolic Activation: HAMSTER, LIVER, S-9, AROCLOR 1254 (10 OR 30%), Method: PREINCUBATION inactive; negative | Test System: AMES SALMONELLA TYPHIMURIUM, Strain/Indicator: TA1535, Metabolic Activation: NONE, Method: PREINCUBATION inactive; negative | Test System: AMES SALMONELLA TYPHIMURIUM, Strain/Indicator: TA1535, Metabolic Activation: RAT, LIVER, S-9, AROCLOR 1254 (10 OR 30%), Method: PREINCUBATION inactive; negative | Test System: AMES SALMONELLA TYPHIMURIUM, Strain/Indicator: TA1535, Metabolic Activation: RAT, LIVER, S-9, PHENOBARBITAL AND BETA-NAPHTHOFLAVONE, Method: PREINCUBATION inactive; negative | Test System: AMES SALMONELLA TYPHIMURIUM, Strain/Indicator: TA1537, Metabolic Activation: HAMSTER, LIVER, S-9, AROCLOR 1254 (30%), Method: PREINCUBATION inactive; negative | Test System: AMES SALMONELLA TYPHIMURIUM, Strain/Indicator: TA1537, Metabolic Activation: NONE, Method: PREINCUBATION inactive; negative | Test System: AMES SALMONELLA TYPHIMURIUM, Strain/Indicator: TA1537, Metabolic Activation: RAT, LIVER, S-9, AROCLOR 1254 (30%), Method: PREINCUBATION inactive; negative | Test System: AMES SALMONELLA TYPHIMURIUM, Strain/Indicator: TA1537, Metabolic Activation: RAT, LIVER, S-9, PHENOBARBITAL AND BETA-NAPHTHOFLAVONE, Method: PREINCUBATION inactive; negative | Test System: E. COLI, Strain/Indicator: WP2UVRA/PKM101, Metabolic Activation: NONE, Method: PREINCUBATION inactive; negative | Test System: E. COLI, Strain/Indicator: WP2UVRA/PKM101, Metabolic Activation: RAT, LIVER, S-9, PHENOBARBITAL AND BETA-NAPHTHOFLAVONE, Method: PREINCUBATION inactive; negative | Test System: E. COLI, Strain/Indicator: WP2UVRA, Metabolic Activation: NONE, Method: PREINCUBATION inactive; negative | Test System: E. COLI, Strain/Indicator: WP2UVRA, Metabolic Activation: RAT, LIVER, S-9, PHENOBARBITAL AND BETA-NAPHTHOFLAVONE, Method: PREINCUBATION inactive; negative

Cc1ccc2cc([N+](=O)[O-])ccc2c1
active: [1] active; positive

COc1ccc2c(OC)c3ccoc3nc2c1
active: Test System: AMES SALMONELLA TYPHIMURIUM, Strain/Indicator: TA98, Metabolic Activation: RAT, LIVER, S-9, PHENOBARBITAL, Method: STANDARD PLATE active; positive | Test System: AMES SALMONELLA TYPHIMURIUM, Strain/Indicator: TA100, Metabolic Activation: RAT, LIVER, S-9, PHENOBARBITAL, Method: STANDARD PLATE active; positive

O=C/C=C/c1ccc([N+](=O)[O-])cc1
active: Test System: AMES SALMONELLA TYPHIMURIUM, Strain/Indicator: TA98, Metabolic Activation: HAMSTER, LIVER, S-9, AROCLOR 1254, Method: STANDARD PLATE active; positive | Test System: AMES SALMONELLA TYPHIMURIUM, Strain/Indicator: TA98, Metabolic Activation: NONE, Method: STANDARD PLATE active; positive | Test System: AMES SALMONELLA TYPHIMURIUM, Strain/Indicator: TA98, Metabolic Activation: RAT, LIVER, S-9, AROCLOR 1254, Method: STANDARD PLATE active; positive | Test System: AMES SALMONELLA TYPHIMURIUM, Strain/Indicator: TA100(1,8-DNP6), Metabolic Activation: NONE, Method: PREINCUBATION active; positive | Test System: AMES SALMONELLA TYPHIMURIUM, Strain/Indicator: TA100(1,8-DNP6), Metabolic Activation: RAT, LIVER, S-9, AROCLOR 1254, Method: PREINCUBATION active; positive | Test System: AMES SALMONELLA TYPHIMURIUM, Strain/Indicator: TA100(NR), Metabolic Activation: RAT, LIVER, S-9, AROCLOR 1254, Method: PREINCUBATION active; positive | Test System: AMES SALMONELLA TYPHIMURIUM, Strain/Indicator: TA100, Metabolic Activation: HAMSTER, LIVER, S-9, AROCLOR 1254, Method: STANDARD PLATE active; positive | [2] active; positive | Test System: AMES SALMONELLA TYPHIMURIUM, Strain/Indicator: TA100, Metabolic Activation: NONE, Method: STANDARD PLATE active; positive | Test System: AMES SALMONELLA TYPHIMURIUM, Strain/Indicator: TA100, Metabolic Activation: RAT, LIVER, S-9, AROCLOR 1254, Method: PREINCUBATION active; positive | Test System: AMES SALMONELLA TYPHIMURIUM, Strain/Indicator: TA100, Metabolic Activation: RAT, LIVER, S-9, AROCLOR 1254, Method: STANDARD PLATE active; positive | Test System: MOUSE LYMPHOMA, Strain/Indicator: L5178Y (TK+/TK-), Metabolic Activation: NONE, Method: SUSPENSION/PLATE active; positive. reevaluation of results: positive
inactive: Test System: AMES SALMONELLA TYPHIMURIUM, Strain/Indicator: TA100(NR), Metabolic Activation: NONE, Method: PREINCUBATION inactive; negative | Test System: MOUSE LYMPHOMA, Strain/Indicator: L5178Y (TK+/TK-), Metabolic Activation: RAT, LIVER, S-9, AROCLOR 1254, Method: SUSPENSION/PLATE inactive; negative. reevaluation of results: negative
